One experiment addresses T1, KRAS G12D protein (Homo sapiens, UniProt P01116, G12D).
T1 construct: host or cells: AsPC-1
Description: KRAS degradation activity by Cell ELISA in AsPC-1 (Test Example 1). It is filed as cell-based. Particulars: AsPC-1 cells, cultured overnight with compound, corrected with β-actin, read-out: DC50 (50% degradation concentration of the amounts of KRAS). The essentials:
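AsPC-1 cells (KRAS G12D), 2.0×10^4/well, treated overnight with compound (10 points, 10 μM–0.3 nM final) in RPMI 1640/10% FBS. Fixed cells immunostained for G12D-specific Ras and β-actin, with near-IR fluorescence read. Ras/actin ratio scaled DMSO = 0% and actin-only = 100%, and DC50 fitted by Sigmoid-Emax regression.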

Experiment [1] deals with human G12D mutant KRAS-positive pancreatic cancer line AsPC-1. As to the kind of experiment: Non-anchorage-dependent cell growth inhibition, spheroid 3D cell culture (Test Example 3). Particulars: Homo sapiens, ASPC1, 144 h, AsPC-1 spheroid 3D culture, 6 days, CellTiter Glo 2.0. It is filed as cell-based. Put shortly: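 AsPC-1 spheroids, 5×10^2 cells per well on low-adhesion round-bottom plates in RPMI 1640/10% FBS, dosed next day at 10 or 6 points spanning 10 μM to 0.3 nM final for 6 days at 37° C., 5% CO2. Viability by CellTiter Glo 2.0 luminescence; IC50 by Sigmoid-Emax regression, DMSO 100% and cell-free medium 0%.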

Experiment [2] relates to phosphorylation of threonine 202 (Thr202) and tyrosine 204 (Tyr204) of ERK. As to the kind of experiment: ERK phosphorylation inhibitory effect by Cell ELISA in AsPC-1 (Test Example 2). It is filed as cell-based, human. Particulars: Homo sapiens, ASPC1, AsPC-1 cells, cultured overnight with compound; 1 μM trametinib taken as 0%. Put shortly: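 AsPC-1 cells (G12D KRAS) treated overnight with compound (10 points, 10 μM to 0.3 nM final), then glyoxal-fixed and immunostained for phospho-ERK with a fluorescent secondary read at 800 nm. IC50 by Sigmoid-Emax regression, with DMSO as 100% and 1 μM trametinib as 0%.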

T1 sequence (P01116 1-188 isoform P01116-2 G12D): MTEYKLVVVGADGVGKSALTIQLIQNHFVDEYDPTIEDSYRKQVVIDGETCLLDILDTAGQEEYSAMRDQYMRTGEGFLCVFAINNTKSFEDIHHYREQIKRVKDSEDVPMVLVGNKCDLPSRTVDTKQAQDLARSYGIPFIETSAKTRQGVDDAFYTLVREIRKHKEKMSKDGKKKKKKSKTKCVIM

`CCn1nccc1-c1ccc([C@H](CO)NC(=O)[C@@H]2C[C@@H](O)CN2C(=O)[C@H](C(C)C)n2cc(-c3ccc(COc4c(-c5c(C)c(F)cc6[nH]ncc56)c(C5CC5)cc5c(N(C)[C@H]6CCNC6)nc(OC[C@H](C)OC)nc45)cc3)nn2)nc1` (atropisomer, axis not shown) [Example 25]: the DC50 at KRAS G12D protein turned out to be 75 nM. Besides, the 50% inhibitory concentration (IC50) in experiment [1] and in experiment [2] was 6 nM in each case.
As to `COCCCOc1nc(N(C)[C@H]2CCNC2)c2cc(C3CC3)c(-c3c(C)c(F)cc4[nH]ncc34)c(OCc3ccc(-c4cn([C@H](C(=O)N5C[C@H](O)C[C@H]5C(=O)N[C@@H](CO)c5ccc(-c6scnc6C)cc5)C(C)C)nn4)cc3)c2n1` (atropisomer, axis not shown) [Example 39], the DC50 at KRAS G12D protein is 37 nM. Also, the IC50 in experiment [1] amounted to 39 nM; in experiment [2] it was 57 nM.
On to `Cc1ncsc1-c1ccc([C@H](CO)NC(=O)[C@@H]2C[C@@H](O)CN2C(=O)[C@H](C(C)C)n2cc(-c3ccc(COc4c(-c5c(C)c(F)cc6[nH]ncc56)c(C5CC5)cc5c(OC6CNC6)nc(OC6CCOCC6)nc45)cc3)nn2)cc1` (atropisomer, axis not shown; (M)) [Example 2, (4R)-1-[(2S)-2-(4-{4-[({(7M)-4-[(azetidin-3-yl)oxy]-6-cyclopropyl-7-(6-fluoro-5-methyl-1H-indazol-4-yl)-2-[(oxan-4-yl)oxy]quinazolin-8-yl}oxy)methyl]phenyl}-1H-1,2,3-triazol-1-yl)-3-methylbutanoyl]-4-hydroxy-N-{(1R)-2-hydroxy-1-[4-(4-methyl-1,3-thiazol-5-yl)phenyl]ethyl}-L-prolinamide], for which, at KRAS G12D protein, the DC50 stood at 20 nM. Also, the values for the half-maximal inhibitory concentration (IC50) in experiment [1] and in experiment [2] were 92 nM and 9 nM, respectively.
Taken in the same sequence, the figures for `CO[C@@H](C)COc1nc(N[C@@H]2CCNC2)c2cc(C3CC3)c(-c3c(C)c(F)cc4[nH]ncc34)c(OCc3ccc(-c4cn([C@H](C(=O)N5C[C@H](O)C[C@H]5C(=O)N[C@@H](CO)c5ccc(-c6scnc6C)cc5)C(C)C)nn4)cc3)c2n1` (atropisomer, axis not shown) [Example 51] were 14 nM, 44 nM and 59 nM.
Taken in the same sequence, the figures for `CO[C@@H](C)COc1nc(N[C@H]2CCNC2)c2cc(C3CC3)c(-c3c(C)c(F)cc4[nH]ncc34)c(OCc3ccc(-c4cn([C@H](C(=O)N5C[C@H](O)C[C@H]5C(=O)N[C@@H](CO)c5ccc(-c6scnc6C)cc5)C(C)C)nn4)cc3)c2n1` (atropisomer, axis not shown) [Example 6] were 24 nM, 8 nM and 5 nM.
For the molecule `Cc1ncsc1-c1ccc([C@H](CO)NC(=O)[C@@H]2C[C@@H](O)CN2C(=O)[C@H](C(C)C)n2cc(-c3ccc(COc4c(-c5c(C)c(F)cc6[nH]ncc56)c(C5CC5)cc5c(N[C@@H]6CNC[C@@H]6O)nc(OC6CCOCC6)nc45)cc3)nn2)cc1` (atropisomer, axis not shown) [Example 7], the DC50 on KRAS G12D protein turned out to be 40 nM. The results for the IC50 in experiment [1] and in experiment [2] were 23 nM and 9 nM, respectively.
Taken in the same sequence, the figures for `CO[C@H](CF)COc1nc(N(C)[C@H]2CCNC2)c2cc(C3CC3)c(-c3c(C)c(F)cc4[nH]ncc34)c(OCc3ccc(-c4cn([C@H](C(=O)N5C[C@H](O)C[C@H]5C(=O)N[C@@H](CO)c5ccc(-c6scnc6C)cc5)C(C)C)nn4)cc3)c2n1` (atropisomer, axis not shown) [Example 46] were 25 nM, 5 nM and 6 nM.
Taken in the same sequence, the figures for `Cc1ncsc1-c1ccc([C@H](CO)NC(=O)[C@@H]2C[C@@H](O)CN2C(=O)[C@H](C(C)C)n2cc(-c3ccc(COc4c(-c5c(C)c(F)cc6[nH]ncc56)c(C5CC5)cc5c(N(C)[C@H]6CCNC6)nc(O[C@@H](C)[C@H](C)O)nc45)cc3)nn2)cc1` (atropisomer, axis not shown) [Example 19] were 91 nM, 50 nM and 95 nM.
Taken in the same sequence, the figures for `Cc1ncsc1-c1ccc([C@H](CO)NC(=O)[C@@H]2C[C@@H](O)CN2C(=O)[C@H](C(C)C)n2cc(-c3ccc(COc4c(-c5c(C)c(F)cc6[nH]ncc56)c(C5CC5)cc5c(N(C)[C@H]6CCNC6)nc(OC6CCOCC6)nc45)cc3)nn2)cc1` (atropisomer, axis not shown) [Example 8] were 18 nM, 16 nM and 20 nM.
Take `Cc1ncsc1-c1ccc([C@H](CO)NC(=O)[C@@H]2C[C@@H](O)CN2C(=O)[C@H](C(C)C)n2cc(-c3ccc(COc4c(-c5c(C)c(F)cc6[nH]ncc56)c(C5CC5)cc5c(O[C@H]6CCNC6)nc(OC6CCOCC6)nc45)cc3)nn2)cc1` (atropisomer, axis not shown) [Example 1]: at KRAS G12D protein, the DC50 turned out to be 13 nM. The IC50 in experiment [1] was 9 nM; in experiment [2] it was 7 nM.
`CO[C@@H](C)COc1cc(N2C[C@@H]3C[C@H]2CN3)c2cc(C3CC3)c(-c3c(C)c(F)cc4[nH]ncc34)c(OCc3ccc(-c4cn([C@H](C(=O)N5C[C@H](O)C[C@H]5C(=O)N[C@@H](CO)c5ccc(-c6scnc6C)cc5)C(C)C)nn4)cc3)c2n1` [Example 55]: the DC50 on KRAS G12D protein stood at 10 nM. Also, the IC50 in experiment [1] is 15 nM; in experiment [2], 4 nM.
Taken in the same sequence, the figures for `Cc1ncoc1-c1ccc([C@H](CO)NC(=O)[C@@H]2C[C@@H](O)CN2C(=O)[C@H](C(C)C)n2cc(-c3ccc(COc4c(-c5c(C)c(F)cc6[nH]ncc56)c(C5CC5)cc5c(N(C)[C@H]6CCNC6)nc(OC[C@H]6CCCO6)nc45)cc3)nn2)cc1` (atropisomer, axis not shown) [Example 31] were 59 nM, 18 nM and 20 nM.
Taken in the same sequence, the figures for `Cc1c(F)cc2[nH]ncc2c1-c1c(C2CC2)cc2c(N(C)[C@H]3CCNC3)nc(OC[C@H]3CCCO3)nc2c1OCc1ccc(-c2cn([C@H](C(=O)N3C[C@H](O)C[C@H]3C(=O)N[C@@H](CO)c3ccc(-n4ccnc4C)cc3)C(C)C)nn2)cc1` (atropisomer, axis not shown) [Example 30] were 121 nM, 12 nM and 10 nM.
Taken in the same sequence, the figures for `Cc1ncsc1-c1ccc([C@H](CO)NC(=O)[C@@H]2C[C@@H](O)CN2C(=O)[C@H](C(C)C)n2cc(-c3ccc(COc4c(-c5c(C)c(F)cc6[nH]ncc56)c(C5CC5)cc5c(N[C@H]6CCNC6)cc(OC6CCOCC6)nc45)cc3)nn2)cc1` [Example 4] were 35 nM, 7 nM and 8 nM.
`Cc1ncsc1-c1ccc([C@H](CO)NC(=O)[C@@H]2C[C@@H](O)CN2C(=O)[C@H](C(C)C)n2cc(-c3ccc(COc4c(-c5c(C)c(F)cc6[nH]ncc56)c(C5CC5)cc5c(N(C)[C@H]6CCNC6)nc(OCCCF)nc45)cc3)nn2)cc1` (atropisomer, axis not shown) [Example 38]: the DC50 at KRAS G12D protein amounted to 25 nM. In addition, the IC50 in experiment [1] and in experiment [2] was 36 nM each time.
On to `CO[C@@H](C)COc1nc(O[C@@H]2CCNC2)c2cc(C3CC3)c(-c3c(C)c(F)cc4[nH]ncc34)c(OCc3ccc(-c4cn([C@H](C(=O)N5C[C@H](O)C[C@H]5C(=O)N[C@@H](CO)c5ccc(-c6scnc6C)cc5)C(C)C)nn4)cc3)c2n1` (atropisomer, axis not shown) [Example 52], for which the DC50 on KRAS G12D protein amounted to 11 nM. The IC50 in experiment [1] and in experiment [2] was 4 nM in each case.
Regarding `CCn1nccc1-c1ccc([C@H](CO)NC(=O)[C@@H]2C[C@@H](O)CN2C(=O)[C@H](C(C)C)n2cc(-c3ccc(COc4c(-c5c(C)c(F)cc6[nH]ncc56)c(C5CC5)cc5c(N(C)[C@H]6CCNC6)nc(OC[C@H]6CCCO6)nc45)cc3)nn2)nc1` (atropisomer, axis not shown) [Example 32], the DC50 on KRAS G12D protein was determined as 51 nM. In addition, the IC50 in experiment [1] turned out to be 24 nM; in experiment [2], 37 nM.
As to `Cc1ncsc1-c1ccc([C@H](CO)NC(=O)[C@@H]2C[C@@H](O)CN2C(=O)[C@H](C(C)C)n2cc(-c3ccc(COc4c(-c5c(C)c(F)cc6[nH]ncc56)c(C5CC5)cc5c(N(C)[C@H]6CCNC6)nc(OC[C@@H]6CCOC6)nc45)cc3)nn2)cc1` (atropisomer, axis not shown) [Example 23], on KRAS G12D protein, the DC50 was 31 nM. The half-inhibitory concentration (IC50) was 12 nM in experiment [1] and 13 nM in experiment [2].
Take `CO[C@@H](C)COc1nc(N(C)[C@H]2CCNC2)c2cc(C3CC3)c(-c3c(C)c(F)cc4[nH]ncc34)c(OCc3ccc(-c4cn([C@H](C(=O)N5C[C@H](O)C[C@H]5C(=O)N[C@@H](CO)c5ccc(F)cc5)C(C)C)nn4)cc3)c2n1` (atropisomer, axis not shown) [Example 12]: the DC50 at KRAS G12D protein turned out to be 61 nM. Besides, the IC50 amounted to 41 nM in experiment [1] and 42 nM in experiment [2].
In the case of `Cc1ncsc1-c1ccc([C@H](CO)NC(=O)[C@@H]2C[C@@H](O)CN2C(=O)[C@H](C(C)C)n2cc(-c3ccc(COc4c(-c5c(C)c(F)cc6[nH]ncc56)c(C5CC5)cc5c(N[C@H]6CCNC6)nc(OC6CCOCC6)nc45)cc3)nn2)cc1` (atropisomer, axis not shown) [Example 3], the DC50 at KRAS G12D protein was determined as 47 nM. Further, the concentration for half-maximal inhibition (IC50) in experiment [1] came to 7 nM; in experiment [2], 16 nM.
